Data reported in US11613552B2, “Pharmaceutical agents, compositions, and methods relating thereto” (Alltech, Inc., priority 2017, dated 2023).

Assays:
[1] = tested on: Lepr^db/db mice; experiment: Glucose tolerance test in Lepr^db/db mice; type: in vivo, mouse
Method: Male Lepr^db/db mice at 38 days of age were intraperitoneally (ip) injected daily with physiological saline ([…]) containing 0.2% DMSO, Compound #C, Compound #50, Compound #68, and/or Compound #43 (25 μg selenium or sulfur equivalents of each compound per kilogram body weight, diluted in sterile physiological saline) for periods ranging from 43-90 days. Body weights of the above treated mice were recorded daily using a balance and any visible abnormal animal gross morphology and walking behavior were monitored daily. After the treatments, animals were fasted overnight and then subjected to blood glucose or HbA1c assays, glucose tolerance tests or tissue collections.
For comparative studies of any potential anti-diabetic effects of Compounds #43, #69 and #70, male Lepr^db/db mice at 41 days of age were intraperitoneally (ip) injected daily with physiological saline ([…]) containing 0.2% DMSO, Compound #43, Compound #69, or Compound #70 (25 μg selenium of each compound per kilogram body weight, diluted in sterile physiological saline). After the treatments for 43 days, animals were fasted overnight and then subjected to blood glucose and glucose tolerance tests. After daily treatments of these compounds for 90 days, sera from these animals were collected and then subjected to blood HbA1c assays.
Glucose tolerance tests were performed as described previously (Li et al, Int J Biol Sci 2008; 4:29-36). Briefly, overnight-fasted Lepr^db/db mice after saline or compound treatments were injected intraperitoneally with 2 grams/kg body weight of 20% D-glucose. Blood glucose levels at time 0 (immediately before the injection of glucose), 0.25, 0.5, 1 and 2 hours after injection of glucose were determined using a glucometer with a maximum glucose measurement capacity of 600 mg/dL. Because of this, blood glucose levels over 600 mg/dL were counted as 600 mg/dL in the data analysis.

[2] = tested on: PDK1/AKT/FOXO1; experiment: Western blot of PDK1/AKT/FOXO1 in serum-starved HepG2 cells; type: cell-based, human
Method: HepG2 cells were seeded on 6-well plates (7×10^5 cells/well) and cultured in 10% FBS EMEM media for 30 hr. Then these cells were washed twice with PBS to remove residual sera, and serum-starved in plain EMEM media overnight. […]
After the above described treatments, cultured HepG2 and AML-12 cells were rinsed twice with ice-cold PBS and lysed in ice-cold RIPA buffer containing complete proteinase and phosphatase inhibitors (Thermo-Fisher Scientific, Waltham, Mass.) on ice for 30 min. Cell lysates were collected using a cell scraper and transfer pipette, and then centrifuged at 12000×g for 30 min at 4° C. to remove the DNA pellet and obtain the protein extract. Protein levels in the supernatant of these cell lysates were determined using the Pierce Micro-BCA protein assay kit (Thermo Scientific-Piece Biotechnology, Rockford, Ill.) according to the manufacturer's protocol.
One hundred micrograms of liver tissue proteins or five micrograms of total proteins from control- and compound(s)-treated HepG2 or AML-12 cells were subjected to SDS-PAGE gel separation and then transferred to PVDF membranes, as described previously (Reddy et al. 2008 Science). Membranes were blocked in a phosphate-buffered saline (PBS) containing 5% (w/v) of bovine serum albumin (Sigma, St. Louis, Mo.) and incubated with specific primary antibodies followed by the incubation with HRP-conjugated anti-mouse or anti-rabbit secondary antibodies (1:5000 dilution, Cell Signaling Inc.). All primary antibodies except Gapdh (Li-COR, Lincoln, Nebr.) were purchased from Cell Signaling Inc. Positive signals on the membrane blots were detected using the Amersham's enhanced chemiluminescence Western Blotting Prime Detection reagents (GE Healthcare Lifescience, Pittsburgh, Pa.). Images of these luminescence signals on the membrane blots were captured using the LI-COR Odyssey Fc Image system (Lincoln, Nebr.). The same membrane blot was stripped and re-blotted with another antibody as described in the GE WB ECL-prime-detection protocol (GE healthcare Lifescience, Pittsburgh, Pa.). Protein band densities in the Western blots were determined using the NIH ImageJ software and then normalized by Gapdh or Actb/ACTB level in each sample. Data are presented as mean±SEM of three samples per each group.

[3] = tested on: Glut4; experiment: QRT-PCR of Glut4 mRNA in livers of Lepr^db/db mice; type: in vivo, mouse; settings: 25 μg selenium/kg ip daily, 52 days (FIG. 15)
Method: Male Lepr^db/db mice (C57BL/6J strain, purchased from The Jackson Laboratory) at postnatal day 38 were intraperitoneally injected daily with physiological saline ([…]) containing 0.2% DMSO, Compound #43, or Compound #50 (25 μg selenium of each compound per kilogram body weight, diluted in sterile physiological saline) for 52 days. After treatment, livers were collected and subjected to RNA analysis.
Total liver RNA from saline- or Compound #43-treated Lepr^db/db mice was isolated using a Qiagen RNAeasy RNA isolation kit according to the Manufacturer's protocol. Total RNA from cultured cells was isolated using Trizol (Invitrogen) according to the manufacturer's protocol, and then incubated with DNase I to remove any potential contaminating genomic DNA. RNA samples were subjected to real-time PCR analysis using Applied-Bioscience's RT kit and predesigned Taqman probes (Invitrogen), as described previously (Lan et al EMBO J 2003). Data were normalized by Actin B (Actb) mRNA levels in each sample and are presented as mean±SEM of 3-5 samples.

[4] = Serum insulin, ALT and creatinine assays in Lepr^db/db mice; type: in vivo, mouse; settings: 0.136 mg/kg ip daily
Method: Male Lepr^db/db mice at 38 days of age were intraperitoneally (ip) injected daily with physiological saline ([…]) containing 0.2% DMSO, and Compound #43 (0.136 mg per kilogram body weight, diluted in sterile physiological saline) for 52 days. Sera from 3-month-old wild-type (non-diabetic) C57 mice were also collected. After the treatments, these serum samples were collected and subjected to insulin, ALT and creatinine assays.
The serum levels of insulin, ALT and creatinine were determined using Themo-Fisher Scientific's Insulin Mouse ELISA kit (Cat #EMINS), Sigma's ALT Activity Assay kit (Cat #MAK052), and Abcam's Creatinine Assay kit (Cat #Ab65340) according to the manufacturer's protocol, respectively.

C[Se]C[C@H]1O[C@@H](n2cnc3c(N)ncnc32)C(OC(C)=O)C1OC(C)=O (stereo partly shown) [Compound #43, Adenosine, 5′-Se-methyl-5′-selino-, 2′,3′-diacetate]
glucose tolerance (overall) ([1]; 25 μg selenium or sulfur/kg ip daily 2 months (FIG. 8B)): dramatically improves glucose tolerance | glucose tolerance (overall) ([1]; 25 μg selenium/kg ip daily 43 days from day 38, glucose 2 g/kg (FIG. 8A)): can almost completely restore insulin action | glucose tolerance (overall) ([1]; 25 μg selenium/kg ip daily 43 days from day 41 (FIG. 8C)): can dramatically improve glucose tolerance | blood glucose level at 2 hr after glucose injection ([1]; FIG. 8A, 43 days treatment): almost completely back to pre-injection glucose levels | blood glucose levels at 0.25, 0.5 and 1 hr after glucose injection ([1]; FIG. 8A, 43 days treatment): visibly lower than saline-, Compound #C- or #50-treated mice | blood glucose level at 2 hr after glucose injection ([1]; FIG. 8B, 2 months treatment): significantly lower than Compound #68-treated littermates | blood glucose level at 1 hour after glucose injection ([1]; FIG. 8C, 43 days treatment): significantly lower than saline-, Compound #69- or Compound #70-treated littermates | blood glucose level at 2 hr after glucose injection ([1]; FIG. 8C, 43 days treatment): much lower than Saline-, Compound #69- or Compound #70-treated mice | time of peak increase of pPDK1 ([2]; 600 ppb): 60-90 minutes | phosphorylated AKT at T308 ([2]; 600 ppb, 30, 60, 90 minutes and 24 hr (FIG. 13C)): significant and transient increase of phosphorylated AKT at T308 | phosphorylated FOXO1 at T24 ([2]; 600 ppb, 90 minutes and longer (FIG. 13E)): significantly increased | total AKT protein levels ([2]; 600 ppb, all tested time points): not significantly altered | total Foxo1 protein levels ([2]; 600 ppb, less than 24 hours): no significant change in total FOXO1 protein levels | total Foxo1 protein levels ([2]; 600 ppb, prolonged treatment 30 hr or 48 hr): slight but statistically significant decrease of total FOXO1 proteins | pPDK1 protein level ([2]; 600 ppb, serum-free, 30, 60, 90 minutes (FIG. 13B)): significant and transient increase of pPDK1 | increase in Glut4 mRNA expression levels in the liver [3]: 5 fold | decrease of serum insulin levels ([4]; 52 days (FIG. 24A)): about 80% | serum ALT levels ([4]; 52 days (FIG. 24B)): significant decrease of serum ALT levels | serum creatinine levels ([4]; 52 days (FIG. 24C)): no significant change in serum creatinine levels
